Test results as given in patent US20100173983A1, “METHOD FOR INDUCING AUTOPHAGY” (priority 2007, published 2010).

Key:
S6K = test: Western blot of xenograft tumour extracts, S6K phosphorylation; assay type: in vivo, SCID mice; conditions: tumour-bearing mice dosed with Cpd 1, compared to control
Protocol: FIG. 11. Cpd 1 markers of autophagy observed in in vitro studies are also present in vivo. […] T-S6K served as loading control.
A downstream target of mTOR is the ribosomal protein S6K kinase thought to have a role in tumour invasiveness, motility and angiogenesis as well as other degenerative diseases such as diabetes (Dann et al., 2007). […] Tumour tissue was homogenised in lysis buffer containing 1% Nonidet P-40, 0.1% SDS, 0.5% deoxycholate, 150 mM NaCl, 50 mM Tris-HCl pH7.5, 1 mM EDTA, 1 mM PMSF and protease inhibitors (Roche) on ice for 30 minutes. After centrifugation at 15,000×g for 15 minutes, soluble extract was were aliquoted into a separate tube, protein content assayed by the BCA method (Pierce), and 50 μg protein loaded on SDS-PAGE gels. Proteins were electrophoretically transferred to PVDF membranes (Millipore Immobilon P) and the membranes were probed with antibodies specific to p-S6K and t-S6K (LifeSpan Bioscience). The blots were developed on X-ray films using HRP-conjugated secondary antibodies and a chemiluminescent substrate (ECL, Amersham, N.Y.).

[1] = tested on: OSE (normal ovarian surface epithelial cells); test: Cell viability, CellTiter 96 assay, normal cells; assay type: cell-based, Human; conditions: concentrations up to 10 μg/ml, 24 hr exposure
Protocol: FIG. 1. Comparative cytotoxicity of dehydroequol and Compound I as described herein (Cpd 1) against normal and ovarian cancer cells: CP70 (cell line), R179, R182, R585 (primary ovarian cancer explants) and OSE (normal ovarian surface epithelial cells). […] Both compounds were tested at concentrations up to 10 μg/ml and exposed to cells for 24 hr.
Human EOC cell lines A2780, CP70, and OSE were propagated in RPMI plus 10% fetal bovine serum (FBS) (Gemini Bio-Products, Woodland, Calif.) at 37° C. in a 5% CO2 atmosphere. Primary EOC cells (R179, R182, R585) were isolated from malignant ovarian ascites and cultured as previously described (Kamsteeg et al., 2003). Dehydroequol and Compound 1 (Cpd 1) were obtained from Novogen (Australia). All other reagents were purchased from Sigma Chemical (St. Louis, Mo.). The pan caspase inhibitor Z-VAD-FMK was obtained from R&D Systems (Minneapolis, Minn.).
Cell viability was evaluated using the CellTiter 96 Aqueous One Solution Cell Proliferation Assay (Promega, Madison, Wis.) according to the manufacturer's instructions. The values from the treated cells were compared with the values generated from the untreated cells and reported as percent viability. Each experiment was performed in triplicate.

[2] = tested on: chemoresistant epithelial ovarian cancer (EOC) xenografts; test: EOC xenograft in SCID mice, tumour growth; assay type: in vivo; conditions: increasing doses, intraperitoneal injection; data not shown
Protocol: In vivo studies using tumour-bearing mice were conducted to further confirm that Cpd 1 induces programmed cell death via an autophagic process. SCID mice bearing chemoresistant epithelial ovarian cancer (EOC) xenografts derived from a primary cell culture of a patient's ascites were administered with increasing doses of Cpd 1 by intraperotineal injection resulting in reductions in both tumor volume and tumor weight (data not shown). Representative tumours excised from these mice and tumour-bearing mice administered vehicle control were then fixed, sectioned and subjected to immunohistopathology analysis using an α-enodonuclease G directed monoclonal antibody. Tumor samples were blocked with either 10% horse or goat serum in PBS for 1 hour at room temperature. Following three washes with PBS, samples were incubated overnight at 4° C. with either the anti-EndoG (LifeSpan Bioscience) antibody or mouse IgG1 isotype as negative controls. After three washes with PBS, specific staining was detected by incubating with a peroxidase-conjugated horse anti-mouse antibody (1:1000 dilution) for 1 hour followed by a five-minute incubation with DAB substrate (Vector Laboratories). Tissue sections were then counterstained with haematoxylin (Sigma Chemical Co.) before dehydration with ethanol and Histosolve (Shandon Inc., Pittsburgh, Pa.). […]

caspase 9 = test: Caspase-Glo 9 assay in R182 cells; assay type: cell-based, Human; conditions: R182 ovarian cancer explants; dose response and duration of exposure (5 μg/ml, 0-25 hr)
Protocol: FIG. 3. Comparative induction of caspase 9 in R182 ovarian cancer explants by Cpd 1 and dehydroequol using either dose response (A) or duration of exposure (B). Caspase 9 activity was assessed using the Caspase-Glo 9 assay.
For caspase activity assays, 10 μg of protein in 50 μL total volume was mixed with 50 μL of equilibrated Caspase-Glo 3/7, 8, or 9 reagents (Promega). After incubating at room temperature for 1 hour, luminescence was measured using TD 20/20 Luminometer (Turner Designs, Sunnyvale, Calif.). Blank values were subtracted and fold-increase in activity was calculated based on activity measured from untreated cells. Each sample was measured in triplicate.

endonuclease G = test: Western blot of R-182 nuclear preparations, endonuclease G; assay type: cell-based, Human; conditions: R-182 cells, 5 μg/ml over 24 hr
Excerpt: FIG. 8. Molecular evidence of autophagic cell death in R-182 ovarian cancer cells induced by Cpd 1. […] B, Beclin 1 binds to Bcl-2. Immunoprecipitation study using mitochondrial preparations of cells pre-treated with Cpd 1 as stated in A, and subjected to beclin 1 immunoprecitation. Immunoprecipitated fractions were washed in PBS, subjected to SDS-PAGE, blotted and then probed with a mouse anti-Bcl-2 antibody. Actin and Topo-1 were used as loading control. C, Depolarized cells resulting from over-expression of Bax and Beclin 1 following administration of Cpd 1. Cells were treated with Cpd 1 as described in A, pelleted and washed in HBSS and the cell pellet resuspended in the reaction buffer for JC-1 (Biovision, Inc. MitoCapture™ K250-100). HBSS-washed cells were analysed by flow cytometry (λexcit=488 nm and (λemit=530 nm for green fluorescence (depolarized) or 590 nm for red fluorescence (polarized). 10,000 gated events were measured with a BD FACScalibur. Results were expressed as mean±standard deviation (n=3).
After treatment with Cpd 1, protein was extracted from cells and measured as previously described (Kamsteeg et al., 2003). For separation of the cytoplasmic and mitochondrial fractions, cell pellets were processed using the ApoAlert Cell Fractionation kit (Promega) according to the manufacturer's instructions. […]

Question: What does the source list for `COc1ccc([C@H]2c3ccc(O)c(C)c3OC[C@H]2c2ccc(O)cc2)cc1` (stereo in doubt) [Cpd 1, 3-(4-hydroxyphenyl)-4-(4-methoxyphenyl)-8-methylchroman-7-ol]?
Answer: phosphorylation status of S6K (S6K-P) in tumour extracts (S6K): reduced compared to control; toxicity against normal OSE cells [1]: some toxicity; tumor volume [2]: reductions; tumor weight [2]: reductions; caspase 9 activity (caspase 9): did not induce caspase 9 activity; endonuclease G in nuclear preparations (endonuclease G): upregulated
